Data as given in ChEMBL document CHEMBL1133038, “New quinolinic derivatives as centrally active antioxidants” (Bioorg Med Chem Lett, 2000).

Assays:
Mus musculus [1] = experiment: Body temperature of NMRI mice after 30 minutes of intraperitoneal administration of 150 mg/kg compound.; format: functional
HT-22 [2] = experiment: Safety ratio of MTC to that of PC50; format: functional, Mus musculus
HT-22 [3] = experiment: The minimum tolerated concentration by MTT reduction assay in HT-22 hippocampal cell line.; format: functional, Mus musculus
Mus musculus [4] = experiment: Percent survival of NMRI mice after 5 hours of intraperitoneal administration of 150 mg/kg of compound.; format: functional; conditions: ip
HT-22 [5] = experiment: The concentration producing 50% protection against L-HCA-mediated neurotoxicity in HT-22 hippocampal cell line.; format: functional, Mus musculus
HT-22 [6] = experiment: The concentration producing 50% toxicity in HT-22 hippocampal cell line.; format: functional; conditions: Mus musculus, read-out: TC50 (the source's name)
[7] = Safety ratio of MTC to that of PC50; Not relevant; format: toxicity
Mus musculus [8] = experiment: The compound was tested for % survival of NMRI mice after 5 hours of intraperitoneal administration of 150 mg/kg of dose; 30/60; format: functional; conditions: ip

Row | Compound | change in body temperature (Mus musculus [1]) [°C] | Ratio (HT-22 [2]) | MTC (HT-22 [3]) [µM] | survival at 150 mg/kg (Mus musculus [4]) [%] | PC50 (HT-22 [5]) [µM] | CC50 (HT-22 [6]) [µM] | Ratio (HT-22 [2]; Mus musculus) | MTC (HT-22 [3]; Mus musculus) [µM] | PC50 (HT-22 [5]; Mus musculus) [µM] | Ratio [7] | survival at 150 mg/kg (Mus musculus [8]) [%]
1 | CCOc1ccc2c(c1)CCC1(CCCCC1)N2 | -0.7 | 156 | 25 | 60 | 0.16 | 74.5 |  |  |  |  | 
2 | CCOc1c(C)c(C)c2c(c1C)CCC(C)(C)N2 | -0.2 | 250 | 50 | 100 | 0.2 | 128 |  |  |  |  | 
3 | CC(C)(C)Oc1ccc2c(c1)C=CC1(CCCCC1)N2 | -0.2 | 77 | 10 | 30 | 0.13 | 13.2 |  |  |  |  | 
4 | CCOc1c(C(C)C)cc2c(c1C(C)C)C=CC1(CCCCC1)N2 |  | 83 | 10 |  | 0.12 | 16.9 |  |  |  |  | 
5 | CCOc1ccc2c(c1)C=CC1(CCCCC1)N2 | -0.2 | 28 | 5 | 80 | 0.18 | 17.1 |  |  |  |  | 
6 | CCOc1ccc2c(c1)C(C)=CC(C)(C)N2 [E324] | -1.85 | 122 | 50 | 80 | 0.41 | 103 |  |  |  |  | 
7 | CCOc1ccc2c(c1)C=CC1(CCN(CC3CC3)CC1)N2 |  | 260 | 200 |  | 0.77 | 200 |  |  |  |  | 
8 | CCOc1c(C)cc2c(c1C)CCC(C)(C)N2 | -0.5 | 625 | 100 | 80 | 0.16 | 186 |  |  |  |  | 
9 | CC(C)(C)C(=O)Oc1ccc2c(c1)C=CC1(CCCCC1)N2 | -2.8 | 1.4 | 1 | 30 | 0.73 | 1.61 |  |  |  |  | 
10 | CCOc1cccc2c1NC(C)(C)C=C2 |  | 100 | 100 |  | 1 | 200 |  |  |  |  | 
11 | CCOc1c(C(C)C)cc2c(c1C(C)C)C=CC(C)(C)N2 | -0.05 | 143 | 10 | 50 | 0.07 | 200 |  |  |  |  | 
12 | O=c1c2ccccc2[se]n1-c1ccccc1 [EBSELEN] | -1.85 | 10 | 10 | 20 | 1 | 20 |  |  |  |  | 
13 | CCOc1cccc2c1NC1(C=C2)CCCCC1 | -1 | 27 | 10 | 60 | 0.37 | 17.9 |  |  |  |  | 
14 | COc1ccc2c(c1)C=CC1(CCCCC1)N2 | -1 | 10 | 5 | 100 | 0.49 | 46.9 |  |  |  |  | 
15 | CCOc1ccc2c(c1)C=CC1(CCNCC1)N2 |  | 20 | 10 |  | 0.51 | 139 |  |  |  |  | 
16 | CCOc1c(C(C)C)cc2c(c1C(C)C)CCC(C)(C)N2 | -0.5 | 167 | 10 | 40 | 0.06 | 18.2 |  |  |  |  | 
17 | VITAMIN E |  |  |  |  |  |  | > 250 | > 200 | 0.8 |  | 
18 | CCOc1c(C(C)(C)C)cc2c(c1C(C)(C)C)C=CC(C)(C)N2 | -1 | 250 | 25 | 60 | 0.1 | 36.5 |  |  |  |  | 
19 | CCOc1c(C)c(C)c2c(c1C)CCC1(CCCCC1)N2 | -0.8 | 67 | 10 | 60 | 0.15 | 17.2 |  |  |  |  | 
20 | CCOc1ccc2c(c1)C(C)CC(C)(C)N2 (stereo not drawn) |  | 58 | 50 |  | 0.86 | 137 |  |  |  |  | 
21 | CCOc1c(C)c(C)c2c(c1C)C=CC(C)(C)N2 | -2.5 | 109 | 50 | 70 | 0.46 | 123 |  |  |  |  | 
22 | C1=CC2(CCCCC2)Nc2ccc(Oc3ccccc3)cc21 |  | 2.1 | 10 |  | 4.75 | 11.2 |  |  |  |  | 
23 | CCOc1c(C)cc2c(c1C)C=CC(C)(C)N2 | -0.9 | 143 | 50 | 100 | 0.35 | 182 |  |  |  |  | 
24 | CCOc1c(C)cc2c(c1C)CCC1(CCCCC1)N2 | -2.2 | 1000 | 10 | 80 | 0.01 | 17.6 |  |  |  |  | 
25 | CC1=NN(c2ccccc2)C(=O)C1 [EDARAVONE] | -2.4 | 2.8 | 200 | 80 | 70.4 | > 200 |  |  |  |  | 
26 | CCOc1ccc2c(c1)C=CC(C)(C)N2 | -1.7 | 132 | 25 | 100 | 0.19 | 56 |  |  |  |  | 
27 | CCOc1c(C)c(C)c2c(c1C)C=CC1(CCCCC1)N2 | -0.8 | 59 | 10 | 50 | 0.17 | 17.8 |  |  |  |  | 
28 | CC(C)(C)/[N+]([O-])=C/c1ccccc1 | -2.1 |  | >200 |  | >200 |  |  |  |  | Not relevant | 50
29 | CCOc1c(C)cc2c(c1C)C=CC1(CCCCC1)N2 | -0.3 | 333 | 10 | 70 | 0.03 | 19.3 |  |  |  |  | 
